Experimental data taken from patent US11857601B2, “Pharmaceutical composition for cancer treatment comprising fusion protein including IL-2 protein and CD80 protein and anticancer drug” (GI INNOVATION, INC., priority 2020, dated 2024).

Legend:
Human CTLA-4 = biological target: T1, Human CTLA-4 (Homo sapiens, UniProt P16410); test: Binding ability to CTLA-4 (Octet RED 384)
T1 construct: purchased Sino Biological 11159-H08H
Description: In order to identify the binding affinity between the fusion protein and its ligand, the binding affinity was measured using Octet RED 384.
AR2G biosensor (Amine Reactive 2nd gen, ForteBio, Cat: 18-5092) was previously hydrated with 200 μl of distilled water in a 96-well microplate (GreinerBio-one, Cat: 655209). A ligand (CTLA-4, Human CTLA-4/CD152, His tag, Sino Biological, Cat: 11159-H08H) to be attached to the AR2G biosensor was diluted with 10 mM acetate buffer (pH 5, AR2G reagent Kit, ForteBio, Cat: 18-5095) to a concentration of 5 μg/ml. […] Activation buffer was prepared by mixing 20 mM EDC and 10 mM s-NHS (AR2G reagent Kit, ForteBio, Cat: 18-5095) in distilled water. 80 μl of each reagent was placed in a 384-well microplate (GreinerBio-one, Cat: 781209) and the program was set up.
Binding kinetics measurements were performed using the Octet RED 384 instrument (ForteBio, Pall Life Science) with agitation at 30° C. and 1,000 rpm. The binding ability for CTLA-4 was measured using the Amine Reactive 2 generation (AR2G) biosensor chip, and the binding ability for PD-L1 was measured using the Nickel charged Tris-NTA (Ni-NTA) biosensor chip. The AR2G biosensor chip was activated with a combination of 400 mM EDC and 100 mM sulfo-NHS. […]

[1] = tested on: CD8+ T cells and NK cells; test: Proliferation of CD8+ T cells and NK cells in mouse spleen; type: in vivo, C57BL/6 mice; conditions: 40.5 μg i.p., spleen five days after injection; compared with GI101w
Description: 7-week-old C57BL/6 mice purchased from Orient Bio (Korea) were divided into 3 groups, each group including 3 mice, and PBS, GI101, or GI101w was injected intraperitoneally thereinto. Here, GI101 and GI101w were respectively prepared to be at 40.5 μg in 200 μl of PBS, and injected intraperitoneally thereinto. Five days after the injection, the spleens were removed from the mice of each group. The cells were isolated therefrom, and the total number of cells was measured using a hematocytometer. Splenocytes were examined for proportions of CD8+ T cells and NK cells therein, with FACS analysis using staining with APC-CD3ε antibody (Biolegend; 145-2C11), PE-NK1.1 antibody (Biolegend; PK136), and Pacific blue-CD8α antibody (BD; 53-6.7). As such, the numbers of CD8+ T cells and NK cells present in the spleen were calculated.

[2] = tested on: effector CD8+ T cells, NK cells, Treg cells; test: Effect on mouse immune cells in spleen; type: in vivo, C57BL/6 mice; conditions: 3rd to 14th days after i.v. administration (3, 6 or 12 mg/kg), vs PBS
Description: On days 1, 3, 5, 7, and 14 after the injection, the spleen tissues were removed from the mice of each group. Thereafter, for the spleen tissue, the numbers of effector CD8+ T cells, NK cells, and Treg cells were calculated with FACS analysis using respective antibodies, and proportions of effector CD8+ T cells and NK cells with respect to Treg cells were respectively calculated. The information on the antibodies used in each cell analysis is as follows:
Effector CD8+ T cell: PB anti-mouse CD3ε antibody (Biolegend, #155612; KT3.1.1), FITC anti-mouse CD8α antibody (BD, #553031, 53-6.7), PE/Cy7 anti-mouse CD44 antibody (Biolegend, #103030; IM7), APC anti-mouse CD122 antibody (Biolegend, #123214; TM-β1)
NK cell: PB anti-mouse CD3ε antibody (Biolegend, #155612; KT3.1.1), PE anti-mouse NK-1.1 (Biolegend, #108708; PK136)
Treg cell: FITC anti-mouse CD3 antibody (Biolegend, #100204; 17A2), PB anti-mouse CD4 antibody (Biolegend, #100531; RM4-5), PE anti-mouse CD25 antibody (Biolegend, #102008; PC61), APC anti-mouse Foxp3 antibody (Invitrogen, #FJK-16s, 17-5773-82).

TC1 cells = test: mGI-101, Cisplatin, Pemetrexed and anti-PD-1 antibody, 1st line and maintenance therapy, TC1 tumor model; type: in vivo, C57BL/6 mice; conditions: mGI-101 3 mg/kg i.p. QW; compared with anticancer chemotherapeutic agent and anti-PD-1 antibody
Description: Mouse-derived lung cancer cell line, TC1, was purchased from ATCC (USA) and used for the test.
TC1 cells were cultured in RPMI1640 medium (Gibco) containing 10% FBS (Gibco) and 1% antibiotic/antifungal agent (Gibco). The cultured cells were harvested using trypsin (Gibco), and then 1×10^6 of TC1 cells were subcutaneously injected into the right flank of C57BL/6 female mice (7-week-old) in order to establish an allotransplanted tumor model.
The mice were randomly assigned based on tumor volume (˜100 mm^3), each group including 13 to 19 mice. The tumor grafts were identified about day 2 after cell inoculation.
The test was divided into the 1st line treatment and the anticancer maintenance therapy. […]
Clinical symptoms such as a disease and a behavioral change were observed once a day during the test period, and deceased animals were identified, and the mice were sacrificed when the tumor size reached a size of 4,000 mm^3. The size of the TC1 solid cancer was measured using a tumor 3D scanner (TM900, Peria, Belgium). […] The anti-tumor efficacy was evaluated as compared with the mouse IgG4 control. […]

T1 sequence (P16410 36-223): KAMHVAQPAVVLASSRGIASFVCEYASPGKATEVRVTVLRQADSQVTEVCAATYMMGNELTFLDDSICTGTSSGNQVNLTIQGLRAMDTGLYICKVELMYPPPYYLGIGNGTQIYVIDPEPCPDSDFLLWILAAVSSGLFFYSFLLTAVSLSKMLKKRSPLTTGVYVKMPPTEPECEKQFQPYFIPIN

Substance | binding ability for CTLA-4 (Human CTLA-4) | proliferation of CD8+ T cells and NK cells in vivo [1] | numbers of CD8+ T cells and NK cells [2] | anticancer effect, anticancer maintenance therapy (TC1 cells)
GI101: fusion protein: human CD80 fragment, Ig hinge, Fc domain, linker, IL-2 variant (2M) (R38A, F42A); SEQ ID NO: 9 | high binding ability | activated proliferation | – | –
mGI101: fusion protein: mouse CD80, Ig hinge, Fc domain, linker, IL-2 variant (2M) (R38A, F42A); SEQ ID NO: 15 | – | – | significant increase | as much anticancer effect as the group having received an anticancer chemotherapeutic agent and an anti-PD-1 antibody
